In patent publication US20220274979A1 (Bayer Pharma Aktiengesellschaft, priority 2018, published 2022):

These compounds were tested against T1, Epidermal Growth Factor Receptor (EGFR) (Homo sapiens, UniProt P00533) (assay: EGFR kinase assay (TR-FRET)). Settings: 10 μM ATP; read-out: EGFR kinase inhibition IC50.
T1 construct: purchased Sigma-Aldrich E3641
T1 sequence (P00533 25-1210): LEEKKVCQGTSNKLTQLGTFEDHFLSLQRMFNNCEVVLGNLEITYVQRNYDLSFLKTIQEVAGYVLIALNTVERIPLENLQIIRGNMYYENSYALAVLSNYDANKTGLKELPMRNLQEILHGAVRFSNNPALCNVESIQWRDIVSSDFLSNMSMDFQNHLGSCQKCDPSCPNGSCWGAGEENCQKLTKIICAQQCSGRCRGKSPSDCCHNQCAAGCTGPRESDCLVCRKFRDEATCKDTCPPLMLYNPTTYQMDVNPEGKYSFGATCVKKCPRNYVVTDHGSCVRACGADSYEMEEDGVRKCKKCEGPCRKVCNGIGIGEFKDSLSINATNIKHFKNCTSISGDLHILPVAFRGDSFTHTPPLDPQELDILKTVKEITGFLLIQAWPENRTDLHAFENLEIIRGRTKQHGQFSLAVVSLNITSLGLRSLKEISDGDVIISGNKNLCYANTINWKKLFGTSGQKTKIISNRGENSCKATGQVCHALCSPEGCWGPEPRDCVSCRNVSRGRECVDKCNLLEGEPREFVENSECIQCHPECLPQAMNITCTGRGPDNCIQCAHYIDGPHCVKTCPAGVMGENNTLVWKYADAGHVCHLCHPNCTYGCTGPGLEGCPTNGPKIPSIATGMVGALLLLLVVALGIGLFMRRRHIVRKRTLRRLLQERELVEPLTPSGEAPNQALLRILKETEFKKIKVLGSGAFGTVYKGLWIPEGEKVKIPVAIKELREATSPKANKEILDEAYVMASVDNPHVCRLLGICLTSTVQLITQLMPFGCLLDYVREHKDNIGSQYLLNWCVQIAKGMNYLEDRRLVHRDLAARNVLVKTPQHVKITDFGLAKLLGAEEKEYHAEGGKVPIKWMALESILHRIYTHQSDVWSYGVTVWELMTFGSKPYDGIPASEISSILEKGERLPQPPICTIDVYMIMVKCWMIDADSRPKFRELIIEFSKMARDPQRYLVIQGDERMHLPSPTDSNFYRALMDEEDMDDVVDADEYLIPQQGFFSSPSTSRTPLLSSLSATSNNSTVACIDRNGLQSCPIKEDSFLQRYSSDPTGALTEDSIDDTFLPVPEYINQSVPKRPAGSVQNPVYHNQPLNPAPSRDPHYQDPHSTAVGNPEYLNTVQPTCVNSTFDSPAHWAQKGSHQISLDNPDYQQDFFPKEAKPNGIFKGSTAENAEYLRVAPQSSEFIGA
Assay type: biochemical
Description: EGFR inhibitory activity of compounds of the present invention was quantified employing the TR-FRET based EGFR assay as described in the following paragraphs.
Epidermal Growth Factor Receptor (EGFR) affinity purified from human carcinoma A431 cells (Sigma-Aldrich, # E3641) was used as kinase. As substrate for the kinase reaction the biotinylated peptide biotin-Ahx-[…] (SEQ ID NO: 8, C-terminus in amid form) was used which can be purchased e.g. form the company Biosyntan GmbH (Berlin-Buch, Germany).
For the assay 50 nL of a 100 fold concentrated solution of the test compound in DMSO was pipetted into a black low volume 384 well microtiter plate (Greiner Bio-One, Frickenhausen, Germany), 2 μL of a solution of EGFR in aqueous assay buffer [50 mM Hepes/HCl pH 7.0, 1 mM MgCl2, 5 mM MnCl2, 0.5 mM activated sodium ortho-vanadate, 0.005% (v/v) Tween-20]were added and the mixture was incubated for […] at 22° C. to allow pre-binding of the test compounds to the enzyme before the start of the kinase reaction. Then the kinase reaction was started by the addition of 3 μL of a solution of adenosine-tri-phosphate (ATP, 16.7 μM=>final conc. in the 5 μL assay volume is 10 μM) and substrate (1.67 μM =>final conc. in the 5 μL assay volume is 1μM) in assay buffer and the resulting mixture was incubated for a reaction time of […] at 22° C. The concentration of EGFR was adjusted depending of the activity of the enzyme lot and was chosen appropriate to have the assay in the linear range, typical concentration were about 3 U/ml. The reaction was stopped by the addition of 5 μl of a solution of HTRF detection reagents (0.1 μM streptavidine-XL665 [Cis Biointernational]and 1 nM PT66-Tb-Cryptate, an terbium-cryptate labelled anti-phospho-tyrosine antibody from Cis Biointernational [instead of the PT66-Tb-cryptate PT66-Eu-Chelate from Perkin Elmer can also be used]) in an aqueous EDTA-solution (80 mM EDTA, 0.2% (w/v) bovine serum albumin in 50 mM HEPES pH 7.5).
The resulting mixture was incubated 1 h at 22° C. to allow the binding of the biotinylated phosphorylated peptide to the streptavidine-XL665 and the PT66-Eu-Chelate. Subsequently the amount of phosphorylated substrate was evaluated by measurement of the resonance energy transfer from the PT66-Tb-Cryptate to the streptavidine-XL665. Therefore, the fluorescence emissions at 620 nm and 665 nm after excitation at 337 nm were measured in a HTRF reader, e.g. a Pherastar (BMG Labtechnologies, Offenburg, Germany) or a Viewlux (Perkin-Elmer). The ratio of the emissions at 665 nm and at […] was taken as the measure for the amount of phosphorylated substrate.
Work on `Cc1nc(NC(C)c2ccc(-c3ccccc3CN(C)C)s2)c2cc(OCCCN(C)C)ncc2n1` (stereo not shown) [Example 72, N-[1-(5-{2-[(dimethylamino)methyl]phenyl}thiophen-2-yl)ethyl]-6-[3-(dimethylamino)propoxy]-2-methylpyrido[3,4-d]pyrimidin-4-amine] yielded an IC50 greater than 20 µM.
Compound `Cc1nc(NC(C)c2ccc(-c3ccccc3CN(C)C)s2)c2cc(NCCn3cccn3)ncc2n1` (stereo not shown) [Example 54, N4-[1-(5-{2-[(dimethylamino)methyl]phenyl}-2-thienyl)ethyl]-2-methyl-N6-[2-(1H-pyrazol-1-yl)ethyl]pyrido[3,4-d]pyrimidine-4,6-diamine] has an IC50 greater than 20 µM.
`Cc1nc(N[C@H](C)c2cccc(Br)c2)c2nc(N3CCOCC3)ncc2n1` [Example 22, N-[(1R)-1-(3-bromophenyl)ethyl]-2-methyl-6-(morpholin-4-yl)pyrimido[5,4-d]pyrimidin-4-amine] was tested, and the IC50 was greater than 20 µM.
`Cc1nc(N[C@H](C)c2cccc(Br)c2)c2cc(Oc3cccc(C4=NCCN4C)c3)ncc2n1` [Example 41, N-[(1R)-1-(3-bromophenyl)ethyl]-2-methyl-6-[3-(1-methyl-4,5-dihydro-1H-imidazol-2-yl)phenoxy]pyrido[3,4-d]pyrimidin-4-amine] gave an IC50 greater than 20 µM.
`Cc1nc(NC(C)c2ccc(-c3ccccc3CN(C)C)s2)c2cc(Oc3cccc(C4=NCCN4C)c3)ncc2n1` (stereo not shown) [Example 58, N-[1-(5-{2-[(dimethylamino)methyl]phenyl}thiophen-2-yl)ethyl]-2-methyl-6-[3-(1-methyl-4,5-dihydro-1H-imidazol-2-yl)phenoxy]pyrido[3,4-d]pyrimidin-4-amine] was tested, and the IC50 was greater than 20 µM.
With `CCOc1cc2c(NC(C)c3cccc4sccc34)nc(C)nc2cn1` (stereo not shown) [Example 3, N-[1-(1-benzothiophen-4-yl)ethyl]-6-ethoxy-2-methylpyrido[3,4-d]pyrimidin-4-amine] the IC50 was greater than 20 µM.
For `Cc1nc(N[C@H](C)c2cccc(Br)c2)c2nc(Oc3ccccc3)ncc2n1` [Example 25, N-[(1R)-1-(3-bromophenyl)ethyl]-2-methyl-6-phenoxypyrimido[5,4-d]pyrimidin-4-amine], the IC50 was greater than 20 µM.
`CCOc1cc2c(N[C@H](C)c3cccc(Br)c3)nc(C)nc2cn1` [Example 5, N-[(1R)-1-(3-bromophenyl)ethyl]-6-ethoxy-2-methylpyrido[3,4-d]pyrimidin-4-amine] was tested, and the IC50 was greater than 20 µM.
Work on `Cc1nc(NC(C)c2ccc(-c3ccccc3CN(C)C)s2)c2cc(C3(O)CCN(C)C3=O)ncc2n1` (mixture of isomers) [Example 85, 3-(4-{[1-(5-{2-[(dimethylamino)methyl]phenyl}thiophen-2-yl)ethyl]amino}-2-methylpyrido[3,4-d]pyrimidin-6-yl)-3-hydroxy-1-methylpyrrolidin-2-one] yielded an IC50 greater than 20 µM.
`COCCOc1ncc2nc(C)nc(N[C@H](C)c3cccc(Br)c3)c2n1` [Example 26, N-[(1R)-1-(3-bromophenyl)ethyl]-6-(2-methoxyethoxy)-2-methylpyrimido[5,4-d]pyrimidin-4-amine] showed an IC50 greater than 20 µM.
`CCOc1cc2c(N[C@H](C)c3cccc(Cl)c3)nc(C)nc2cn1` [Example 6] showed an IC50 greater than 20 µM.
In the case of `CCOc1ncc2nc(C)nc(N[C@H](C)c3cccc(Br)c3)c2n1` [Example 23, N-[(1R)-1-(3-bromophenyl)ethyl]-6-ethoxy-2-methylpyrimido[5,4-d]pyrimidin-4-amine], the IC50 is reported as greater than 20 µM.
Compound `Cc1nc(NC(C)c2ccc(-c3ccccc3CN(C)C)s2)c2cc(OC3CCS(=O)(=O)CC3)ncc2n1` (stereo not shown) [Example 67, N-[1-(5-{2-[(dimethylamino)methyl]phenyl}thiophen-2-yl)ethyl]-6-[(1,1-dioxidotetrahydro-2H-thiopyran-4-yl)oxy]-2-methylpyrido[3,4-d]pyrimidin-4-amine] has an IC50 greater than 20 µM.
`COc1cc2c(NC(C)c3cccc4sccc34)nc(C)nc2cn1` (stereo not shown) [Example 4, N-[1-(1-benzothiophen-4-yl)ethyl]-6-methoxy-2-methylpyrido[3,4-d]pyrimidin-4-amine] gave an IC50 greater than 20 µM.
Compound `Cc1nc(NC(C)c2ccc(-c3ccccc3CN(C)C)s2)c2cc(NC3CCOCC3)ncc2n1` (stereo not shown) [Example 53, N4-[1-(5-{2-[(dimethylamino)methyl]phenyl}-2-thienyl)ethyl]-2-methyl-N6-(tetrahydro-2H-pyran-4-yl)pyrido[3,4-d]pyrimidine-4,6-diamine] has an IC50 greater than 20 µM.
In the case of `COc1ccc2nc(C)nc(N[C@H](C)c3cccc(Br)c3)c2n1` [Example 28, N-[(1R)-1-(3-bromophenyl)ethyl]-6-methoxy-2-methylpyrido[3,2-d]pyrimidin-4-amine], the IC50 is reported as greater than 20 µM.
Work on `CC(=O)NCCNc1cc2c(N[C@H](C)c3cccc(Br)c3)nc(C)nc2cn1` [Example 44, N-{2-[(4-{[(1R)-1-(3-bromophenyl)ethyl]amino}-2-methylpyrido[3,4-d]pyrimidin-6-yl)amino]ethyl}acetamide] yielded an IC50 greater than 20 µM.
For `Cc1nc(N[C@H](C)c2cccc(Br)c2)c2cc(NCCn3ccnc3)ncc2n1` [Example 84, N4-[(1R)-1-(3-bromophenyl)ethyl]-N6-[2-(1H-imidazol-1-yl)ethyl]-2-methylpyrido[3,4-d]pyrimidine-4,6-diamine], the IC50 was greater than 20 µM.
`Cc1nc(NC(C)c2ccc(-c3ccccc3CN(C)C)s2)c2cc(N3CC(NC(=O)CCCn4c(-c5ccccn5)nc(C)c4C)C3)ncc2n1` (stereo not shown) [Example 87, N-[1-(4-{[1-(5-{2-[(dimethylamino)methyl]phenyl}thiophen-2-yl)ethyl]amino}-2-methylpyrido[3,4-d]pyrimidin-6-yl)azetidin-3-yl]-4-[4,5-dimethyl-2-(pyridin-2-yl)-1H-imidazol-1-yl]butanamide] was tested, and the IC50 was greater than 20 µM.
In the case of `Cc1nc(NC(C)c2ccc(-c3ccccc3CN(C)C)s2)c2cc(N3CC(NC(=O)C4CCCCC4)C3)ncc2n1` (stereo not shown) [Example 90, N-[1-(4-{[1-(5-{2-[(dimethylamino)methyl]phenyl}thiophen-2-yl)ethyl]amino}-2-methylpyrido[3,4-d]pyrimidin-6-yl)azetidin-3-yl]cyclohexanecarboxamide], the IC50 is reported as greater than 20 µM.
`Cc1nc(N[C@H](C)c2cccc(Br)c2)c2cc(N3CCNC(=O)C3)ncc2n1` [Example 45] showed an IC50 greater than 20 µM.
In the case of `COCCOc1ccc2nc(C)nc(N[C@H](C)c3cccc(Br)c3)c2n1` [Example 30, N-[(1R)-1-(3-bromophenyl)ethyl]-6-(2-methoxyethoxy)-2-methylpyrido[3,2-d]pyrimidin-4-amine], the IC50 is reported as greater than 20 µM.
In the case of `Cc1nc(N[C@H](C)c2cccc(Br)c2)c2cc(OCCN(C)C)ncc2n1` [Example 78, N-[(1R)-1-(3-bromophenyl)ethyl]-6-[2-(dimethylamino)ethoxy]-2-methylpyrido[3,4-d]pyrimidin-4-amine], the IC50 is reported as greater than 20 µM.
For `Cc1nc(N[C@H](C)c2cccc(Br)c2)c2cc(N3CCN(Cc4cccnc4)CC3)ncc2n1` [Example 43, N-[(1R)-1-(3-bromophenyl)ethyl]-2-methyl-6-[4-(pyridin-3-ylmethyl)piperazin-1-yl]pyrido[3,4-d]pyrimidin-4-amine], the IC50 was greater than 20 µM.
Work on `Cc1nc(NC(C)c2ccc(-c3ccccc3CN(C)C)s2)c2cc(NCCN3CCOCC3)ncc2n1` (stereo not shown) [Example 48] yielded an IC50 greater than 20 µM.
`CCOc1ccc2nc(C)nc(N[C@H](C)c3cccc(Br)c3)c2n1` [Example 29, N-[(1R)-1-(3-bromophenyl)ethyl]-6-ethoxy-2-methylpyrido[3,2-d]pyrimidin-4-amine] gave an IC50 greater than 20 µM.
In the case of `Cc1nc(NC(C)c2ccc(Br)s2)c2cc(F)ncc2n1` (stereo not shown) [Example 35], the IC50 is reported as greater than 20 µM.
Work on `Cc1nc(N[C@H](C)c2cccc(Br)c2)c2nc(N(C)C)ncc2n1` [Example 21] yielded an IC50 greater than 20 µM.
In the case of `Cc1nc(N[C@H](C)c2cccc(Br)c2)c2cc(OCC3CC3)ncc2n1` [Example 75, N-[(1R)-1-(3-bromophenyl)ethyl]-6-(cyclopropylmethoxy)-2-methylpyrido[3,4-d]pyrimidin-4-amine], the IC50 is reported as greater than 20 µM.
`Cc1nc(NC(C)c2ccc(-c3ccccc3CN(C)C)s2)c2cc(N3CC(NC(=O)CC4CC4)C3)ncc2n1` (stereo not shown) [Example 91, 2-cyclopropyl-N-[1-(4-{[1-(5-{2-[(dimethylamino)methyl]phenyl}thiophen-2-yl)ethyl]amino}-2-methylpyrido[3,4-d]pyrimidin-6-yl)azetidin-3-yl]acetamide] gave an IC50 greater than 20 µM.
Work on `Cc1nc(NC(C)c2ccc(-c3ccccc3CN(C)C)s2)c2cc(NCC3CCNC(=O)C3)ncc2n1` (stereo not shown) [Example 86, 4-{[(4-{[1-(5-{2-[(dimethylamino)methyl]phenyl}thiophen-2-yl)ethyl]amino}-2-methylpyrido[3,4-d]pyrimidin-6-yl)amino]methyl}piperidin-2-one] yielded an IC50 greater than 20 µM.
